15 molecules from US20060073530A1 (priority 2001, published 2006) can be followed below.

The target in assay [1] is SrtADN (Staphylococcus aureus, UniProt Q2FV99). It is filed as biochemical, S. aureus.
Assay [2] concerns the target sortase (cleavage of sorting signals at the LPXTG motif) (Staphylococcus aureus, UniProt Q2FV99). The assay is classed as cell-based, S. aureus OS2.
Assay [3] has as its target SrtBΔN (Staphylococcus aureus, UniProt Q2FZE3, E55A/N120I/R216K). It is filed as biochemical, S. aureus. The note with it: for SrtBΔN cleavage of NPQTN peptides: incubation of purified enzyme with inhibitor.
In assay [4] the test system is Sec-dependent export of P1 precursor (SecA). It is filed as cell-based, S. aureus OS2.
The test system of assay [5] is staphylococci. It is filed as cell-based, S. aureus OS2.
Assay [6] addresses sortase (Staphylococcus aureus, UniProt Q2FV99). The assay is classed as biochemical, staphylococcal.
For assay [7], the system named is surface protein SEB-SPA490-524 (sortase acyl-enzyme intermediates). The assay is classed as cell-based, S. aureus.
For assay [8], the system named is surface protein SEB-MH6-CWS. It is filed as cell-based, S. aureus OS2 and BB270.
The test system of assay [9] is staphylococci. The experiment in a line: Growth of staphylococci in the presence of antibiotics. The assay is classed as cell-based, S. aureus OS2.
Assay [10] relates to cell wall sorting of Seb-Spa490-524. It is filed as cell-based, S. aureus OS2.
The subject of assay [11] is bacterial cell wall synthesis. The assay is classed as cell-based, S. aureus.

Values joined by “and” are separate entries in the source; they are usually repeats but may differ in a detail not shown here. Identical values can stand only once. “Also recorded” adds a separate entry of the source. Like-named read-outs stand apart in the source and are kept apart here.

With `O[C@H](CS)[C@H](O)CS` (racemic) [dithiothreitol], the “LPXTG peptide cleavage activity restored” value in [1] (MTSET-inactivated SrtADN incubated with 10 mM DTT) was 80%. Further, in assay [2], the “cleavage of sorting signals at the LPXTG motif (cell wall sorting reaction)” value (shortened to “cleavage of sorting signals”) was “did not affect the sorting reaction”. Also, the “SrtB-mediated cleavage of NPQTN peptide” value in [3] (addition of DTT, even in the presence of MTSET) was “greatly stimulated SrtB-mediated cleavage”.
On to `O=C(O)CN(CCN(CC(=O)O)CC(=O)O)CC(=O)O` [EDTA], for which, in assay [2], the “cleavage of sorting signals” value was “Neither PMSF, which reacts with hydroxyl (Creighton, 1993), nor treatment with the divalent cation chelator EDTA interfered with cell wall sorting”.
In the case of `CS(=O)(=O)SCCS(=O)(=O)[O-].[Na+]` [MTSES], the “cleavage of sorting signals” value in assay [2] is given as “interfered with sorting albeit not as effectively as MTSET”.
Take `C[N+](C)(C)CCSS(C)(=O)=O` [MTSET, [2-(trimethylammonium)ethyl]methanethiosulfonate]: in [4], the “Sec-dependent export of P1 precursor” value is “remained unaltered”. In addition, in assay [5], the “incorporation of [35S]methionine by staphylococci” value was “prevented incorporation”. For the same molecule, the “hydroxylaminolysis of LPXTG peptide by SrtADN” value in [1] (pre-incubation with MTSET) is reported as “abolished all enzymatic activity”. For the same molecule, the “cleavage of sorting signals” value in [2] is on record as “sensitive; also recorded: interfered with the cleavage of sorting signals at the LPXTG motif”. Further, in assay [6] (pre-incubation of staphylococcal extracts with MTSET), the “hydroxylaminolysis of LPXTG peptide” value is reported as “inhibited”. Moreover, in [3], the “SrtBΔN cleavage of NPQTN peptides” value is “inhibited”.
On to `CCN1C(=O)C=CC1=O` [N-ethylmaleimide], for which, in [2], the “cleavage of sorting signals” value is “did not”.
In the case of `NO` [NH2OH, hydroxylamine], the “fluorescence intensity (LPXTG peptide cleavage)” value in [6] (0.1 M NH2OH added to staphylococcal extracts) is “forty fold increase in fluorescence intensity”. Moreover, in assay [7], the “amounts of released surface proteins” value is given as “increased amounts of released surface proteins”; the “surface proteins released into the extra-cellular medium” value is 16.9% and 12.7%. Moreover, in assay [8], the “release of SEB-MH6-CWS” value was “caused the release of SEB-MH6-CWS”.
Take `O=S(=O)(F)Cc1ccccc1` [PMSF]: in assay [2], the “cleavage of sorting signals” value is listed as “Neither PMSF, which reacts with hydroxyl (Creighton, 1993), nor treatment with the divalent cation chelator EDTA interfered with cell wall sorting”.
For the molecule `NC(=O)CI` [iodoacetamide], the “cleavage of sorting signals” value in assay [2] was “did not”.
On the same count and under the same terms, the result for `O=C(O)CI` [iodoacetate] reads “did not”.
As for `OCCS` [mercaptoethanol], the “cleavage of sorting signals” value in assay [2] was “did not affect the sorting reaction”.
On to `CSS(C)(=O)=O` [methylmethane thiosulfonate], for which the “peptide bond hydrolysis / cleavage of LPETG peptide” value in assay [1] (SrtA DN, absence of the peptidoglycan substrate) is listed as “inhibited”.
On to `O=C(O)c1cc[c]([Hg][OH])cc1` [pHMB, p-hydroxymercuribenzoic acid], for which the “SrtAΔN cleavage of LPXTG containing peptides” value in [1] (incubation of purified enzyme with inhibitor) is reported as “inhibited”. Besides, the “cleavage of sorting signals” value in [2] is given as “chemical inhibitors of the sorting reaction; also recorded: displayed an inhibitory effect”. For the same molecule, in assay [3], the “SrtBΔN cleavage of NPQTN peptides” value is recorded as “inhibited”.
As for `CC1(C)S[C@@H]2[C@H](NC(=O)Cc3ccccc3)C(=O)N2[C@H]1C(=O)O` [penicillin, penicillin G], the “growth rate of staphylococci” value in assay [9] is on record as “reduced the growth rate”. The “rate of cell wall sorting (P2 precursor accumulation)” value (shortened to “rate of cell wall sorting”) in [10] is on record as “did not alter the rate of cell wall sorting”.
Regarding `CN[C@H](CC(C)C)C(=O)N[C@H]1C(=O)N[C@@H](CC(N)=O)C(=O)N[C@H]2C(=O)N[C@H]3C(=O)N[C@H](C(=O)N[C@H](C(=O)O)c4cc(O)cc(O)c4-c4cc3ccc4O)[C@H](O)c3ccc(c(Cl)c3)Oc3cc2cc(c3O[C@@H]2O[C@H](CO)[C@@H](O)[C@H](O)[C@H]2O[C@H]2C[C@](C)(N)[C@H](O)[C@H](C)O2)Oc2ccc(cc2Cl)[C@H]1O` [vancomycin], in assay [9], the “growth rate of staphylococci” value is “reduced the growth rate”. Further, in assay [10], the “rate of cell wall sorting” value is “steady accumulation of P2 precursor”. Besides, in assay [11], the “inhibition of cell wall synthesis” value is reported as 20 fold and the “ratio of incorporated [3H]lysine/[3H]leucine” value is on record as 1.5.
For the molecule moenomycin, the “growth rate of staphylococci” value in assay [9] (10 μg/ml antibiotic, compared to mock treated control) is on record as “reduced the growth rate”. Moreover, the “rate of cell wall sorting” value in assay [10] is listed as “similar, albeit weaker effect”.
